Measurements published in ChEMBL document CHEMBL5131572, “Identification of a Potent, Selective, and Brain-Penetrant Rho Kinase Inhibitor and its Activity in a Mouse Model of Huntington's Disease” (J Med Chem, 2022).
pEC50, pIC50: −log10 of the molar value.

Experiments:
[1] = molecular target: LIM domain kinase 2 (Homo sapiens, UniProt P53671); assay: Inhibition of wild-type human full length LIMK2 (M1 to P638 residues) expressed in bacterial expression system by Kinomescan method
[2] = Inhibition of ROCK in rat A7R5 cells assessed as increase in AKT phosphorylation measured after 30 mins by alphaLISA Surefire multiplex assay; type: cell-based; conditions: A7R5, 0.5 h
[3] = system: Mus musculus; assay: Antihypertensive activity in CD1 mouse assessed as decrease in body temperature at 10 to 20 mg/kg, po measured after 0.5 to 4 hrs; type: functional; conditions: dose 10-20 mg/kg, time 0.5-4 hrs
[4] = system: Mus musculus; assay: Antihypertensive activity in CD1 mouse assessed as decrease in mean arterial pressure at 10 to 20 mg/kg, po measured after 0.5 to 2 hrs; type: functional; conditions: dose 10-20 mg/kg, time 0.5-2 hrs
[5] = Inhibition of ROCK in human PANC-1 cells assessed as decrease in MYPT1 phosphorylation at T850 residues measured after 1 hr by Western blot analysis; type: cell-based; conditions: PANC-1, 1 h
[6] = molecular target: T1, cGMP-dependent protein kinase 1 (Homo sapiens, UniProt Q13976); assay: Inhibition of full length recombinant N-terminal GST-tagged human PKG expressed in baculovirus infected Sf9 insect cells using RSK as substrate preincubated for 15 mins followed by substrate addition and measured after 30 mins in presence of ATP by ADP Glo kinase assay
T1 sequence (Q13976 whole entry): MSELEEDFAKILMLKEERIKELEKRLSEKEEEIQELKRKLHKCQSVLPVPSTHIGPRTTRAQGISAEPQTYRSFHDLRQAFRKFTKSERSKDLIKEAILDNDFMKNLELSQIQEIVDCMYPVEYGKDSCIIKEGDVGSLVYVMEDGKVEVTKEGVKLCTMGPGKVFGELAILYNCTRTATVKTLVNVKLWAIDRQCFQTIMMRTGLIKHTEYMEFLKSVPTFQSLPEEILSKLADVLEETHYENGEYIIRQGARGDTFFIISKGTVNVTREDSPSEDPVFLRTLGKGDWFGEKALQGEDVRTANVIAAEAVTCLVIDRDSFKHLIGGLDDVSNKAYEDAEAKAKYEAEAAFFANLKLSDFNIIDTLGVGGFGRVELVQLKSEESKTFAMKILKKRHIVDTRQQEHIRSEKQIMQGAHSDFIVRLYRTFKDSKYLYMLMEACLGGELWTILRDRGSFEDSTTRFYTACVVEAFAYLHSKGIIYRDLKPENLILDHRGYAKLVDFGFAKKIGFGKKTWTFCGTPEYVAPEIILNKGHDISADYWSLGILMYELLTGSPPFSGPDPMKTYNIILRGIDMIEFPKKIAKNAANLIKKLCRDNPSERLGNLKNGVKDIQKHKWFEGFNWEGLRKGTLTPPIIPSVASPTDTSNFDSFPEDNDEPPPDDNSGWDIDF

[7] = system: Mus musculus; assay: In vivo inhibition of ROCK in HTT zQ175DN Knock-in mouse assessed as reduction in MYPT1 phosphorylation in striatum at 10 mg/kg, po by MSD assay; type: functional, organism-based; conditions: time 1-8 hrs, TDE = time-dependent effect
[8] = system: Mus musculus; assay: In vivo inhibition of ROCK in po dosed HTT zQ175DN Knock-in mouse assessed as reduction in MYPT1 phosphorylation in striatum after 1 hr by MSD assay; type: functional, organism-based; conditions: dose 1-20 mg/kg, DDE = dose-dependent effect
[9] = system: Mus musculus; assay: Antihypertensive activity in CD1 mouse assessed as decrease in heart rate pressure at 10 to 20 mg/kg, po measured after 0.5 to 2 hrs; conditions: dose 10-20 mg/kg, time 0.5-2 hrs
[10] = system: Mus musculus; assay: Antihypertensive activity in CD1 mouse assessed as decrease in systolic blood pressure at 10 to 20 mg/kg, po measured after 0.5 to 2 hrs; type: functional; conditions: dose 10-20 mg/kg, time 0.5-2 hrs
[11] = molecular target: Rho-associated protein kinase 2 (Homo sapiens, UniProt O75116); assay: Inhibition of recombinant N-terminal GST-tagged human ROCK2 (5 to 554 residues) expressed in baculovirus infected Sf9 cells using S6K as substrate incubated for 30 mins in presence of ATP by ADP Glo kinase assay
Chain of Rho-associated protein kinase 2 (O75116 whole entry, the tested form may be a part): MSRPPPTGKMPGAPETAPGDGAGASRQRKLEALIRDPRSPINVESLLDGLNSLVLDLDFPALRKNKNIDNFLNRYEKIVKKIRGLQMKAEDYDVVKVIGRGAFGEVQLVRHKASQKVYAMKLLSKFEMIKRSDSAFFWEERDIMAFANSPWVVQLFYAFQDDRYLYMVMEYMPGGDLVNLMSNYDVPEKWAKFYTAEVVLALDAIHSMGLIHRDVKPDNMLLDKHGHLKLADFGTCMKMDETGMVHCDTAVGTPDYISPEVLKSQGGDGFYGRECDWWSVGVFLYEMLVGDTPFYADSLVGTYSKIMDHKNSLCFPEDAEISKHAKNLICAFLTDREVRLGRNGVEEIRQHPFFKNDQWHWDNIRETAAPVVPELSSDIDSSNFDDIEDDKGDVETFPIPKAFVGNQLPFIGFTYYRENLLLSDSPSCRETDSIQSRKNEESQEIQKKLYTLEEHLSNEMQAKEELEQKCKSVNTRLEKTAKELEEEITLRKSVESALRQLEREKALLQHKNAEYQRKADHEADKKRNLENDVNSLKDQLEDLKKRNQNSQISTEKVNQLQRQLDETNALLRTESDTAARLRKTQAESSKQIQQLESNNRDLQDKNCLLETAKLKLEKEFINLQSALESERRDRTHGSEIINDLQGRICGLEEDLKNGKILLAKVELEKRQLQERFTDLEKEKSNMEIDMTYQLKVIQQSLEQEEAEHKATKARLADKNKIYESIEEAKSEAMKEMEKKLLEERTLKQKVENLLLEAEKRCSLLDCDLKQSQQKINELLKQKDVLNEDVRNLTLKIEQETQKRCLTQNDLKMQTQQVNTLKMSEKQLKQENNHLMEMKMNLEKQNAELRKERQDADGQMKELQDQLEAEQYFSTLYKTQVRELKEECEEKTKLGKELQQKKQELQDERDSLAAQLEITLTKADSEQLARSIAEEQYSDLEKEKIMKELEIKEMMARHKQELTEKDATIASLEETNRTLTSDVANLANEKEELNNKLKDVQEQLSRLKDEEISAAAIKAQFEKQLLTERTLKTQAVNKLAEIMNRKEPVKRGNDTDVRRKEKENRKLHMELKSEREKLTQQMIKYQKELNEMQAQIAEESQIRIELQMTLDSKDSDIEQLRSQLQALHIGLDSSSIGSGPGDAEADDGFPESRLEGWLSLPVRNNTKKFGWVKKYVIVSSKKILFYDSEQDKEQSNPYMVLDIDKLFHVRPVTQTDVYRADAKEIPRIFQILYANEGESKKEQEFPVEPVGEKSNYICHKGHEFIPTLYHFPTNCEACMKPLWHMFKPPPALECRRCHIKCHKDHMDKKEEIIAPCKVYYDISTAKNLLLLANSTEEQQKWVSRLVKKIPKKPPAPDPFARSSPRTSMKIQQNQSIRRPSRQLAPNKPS

[12] = system: Mus musculus; assay: Antihypertensive activity in CD1 mouse assessed as decrease in diastolic blood pressure at 10 to 20 mg/kg, po measured after 0.5 to 2 hrs; type: functional; conditions: dose 10-20 mg/kg, time 0.5-2 hrs
[13] = Inhibition of ROCK in rat A7R5 cells assessed as cofilin serine 3 phosphorylation incubated for 1 hr by ICW assay; conditions: A7R5, 1 h

Chain of LIM domain kinase 2 (P53671 whole entry, the tested form may be a part): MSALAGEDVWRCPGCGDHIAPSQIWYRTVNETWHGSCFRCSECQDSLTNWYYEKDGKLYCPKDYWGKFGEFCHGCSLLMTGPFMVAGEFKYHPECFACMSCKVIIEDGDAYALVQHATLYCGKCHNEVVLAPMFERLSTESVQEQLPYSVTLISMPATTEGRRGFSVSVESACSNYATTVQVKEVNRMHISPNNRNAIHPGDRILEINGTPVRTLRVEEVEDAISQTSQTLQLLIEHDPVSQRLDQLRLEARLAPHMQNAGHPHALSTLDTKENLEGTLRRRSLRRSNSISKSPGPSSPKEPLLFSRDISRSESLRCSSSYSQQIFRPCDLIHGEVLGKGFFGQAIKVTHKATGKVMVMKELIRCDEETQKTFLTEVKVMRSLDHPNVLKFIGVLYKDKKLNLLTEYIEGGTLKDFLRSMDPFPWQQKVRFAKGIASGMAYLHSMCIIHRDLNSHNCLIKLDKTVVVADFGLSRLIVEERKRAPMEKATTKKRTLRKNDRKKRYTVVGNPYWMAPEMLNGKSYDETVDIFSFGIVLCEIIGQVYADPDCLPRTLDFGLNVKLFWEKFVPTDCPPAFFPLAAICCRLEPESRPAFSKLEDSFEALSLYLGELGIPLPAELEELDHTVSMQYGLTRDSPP

SMILES: COc1cccc([C@@H](C)NC(=O)N2CCN(c3ccncc3F)C[C@H]2C)c1
- pIC50 [1]: 7.60
- pEC50 [2]: 7.55
- T [3]: 2.5 °C
- Activity [4]: 61 mmHg
- pIC50 [5]: 7.85
- pIC50 [6]: 5.65
- inhibition [7]: Tde
- inhibition [8]: Dde
- Activity [9]: 107 bpm
- Activity [10]: 59.5 mmHg
- pIC50 [11]: 8.52
- Activity [12]: 56.4 mmHg
- pIC50 [13]: 8.10
